From patent publication US11702418B2, “SOS1 inhibitors” (priority 2019, dated 2023)
Structures can show the parent of a compound that is named as a salt. Where two headings read alike, the source gives them in different places.

Key:
pERK in MKN1 cells = assay: cells; format: cell-based; conditions: Homo sapiens
[1] = target: recombinant human SOS1 polypeptide (amino acids 560-1049) (Homo sapiens (Human), UniProt Q07889); assay: biochemical; format: binding; conditions: read-out: Ki, Inhibition of Labeled Tracer Binding to SOS1
recombinant human SOS1 polypeptide (amino acids 560-1049), sequence (Q07889 560-1049): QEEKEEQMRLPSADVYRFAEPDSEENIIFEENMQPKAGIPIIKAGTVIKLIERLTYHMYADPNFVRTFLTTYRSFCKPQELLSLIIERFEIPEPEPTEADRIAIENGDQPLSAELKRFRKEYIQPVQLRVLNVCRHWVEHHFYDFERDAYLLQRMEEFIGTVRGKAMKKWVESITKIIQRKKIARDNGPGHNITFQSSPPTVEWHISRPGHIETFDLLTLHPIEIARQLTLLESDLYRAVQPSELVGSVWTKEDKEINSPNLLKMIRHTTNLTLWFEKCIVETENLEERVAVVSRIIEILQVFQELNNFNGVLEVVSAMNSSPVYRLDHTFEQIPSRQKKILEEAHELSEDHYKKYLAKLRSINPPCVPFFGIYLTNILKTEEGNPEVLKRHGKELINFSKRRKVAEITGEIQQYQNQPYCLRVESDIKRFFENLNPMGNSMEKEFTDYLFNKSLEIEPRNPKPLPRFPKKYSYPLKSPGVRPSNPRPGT

[2] = MKN-1, pERK inhibition, In-Cell Western, MKN1 or H358 cells (Table 24 does not say which), 0.5-1 hour incubation, read-out: IC50
[3] = HTRF displacement, Cy5 labelled tracer, Morrison equation for competitive binding
[4] = MKN-1, pERK inhibition, In-Cell Western, MKN1 or H358 cells (Table 24 does not say which), 0.5-1 hour incubation

Compound	IC50 (pERK in MKN1 cells; [2]) [nM]	Ki [1, 3] [nM]	IC50 (pERK in MKN1 cells; [4]) [nM]	Ki [1] [nM]	IC50 (pERK in MKN1 cells; MKN-1) [nM]
Cc1c(C#N)cccc1[C@@H](C)Nc1nnc(C)c2cnc(N3CC4(CCN(C)C4)C3)cc12 [Example 12-51]	48	0.79			
Cc1cc(C#N)cc([C@@H](C)Nc2nnc(C)c3cnc(N4CCOCC4)cc23)c1 [Example 21-3, (R)-3-methyl-5-(1-((4-methyl-7-morpholinopyrido[3,4-d]pyridazin-1-yl)amino)ethyl)benzonitrile]			221	14.4	
Cc1c([C@@H](C)Nc2nnc(C)c3ccc(N4CC(C)(N(C)C)C4)cc23)cccc1C(F)(F)F [Example 10-66, (R)-7-(3-(dimethylamino)-3-methylazetidin-1-yl)-4-methyl-N-(1-(2-methyl-3-(trifluoromethyl)phenyl)ethyl)phthalazin-1-amine]	108	0.78			
COC1(C)CN(c2cc3c(N[C@H](C)c4cccc(C(F)(F)F)c4C)nnc(C)c3cn2)C1 [Example 12-37]	32	0.85			
Cc1c([C@@H](C)Nc2nnc(C)c3ccc(OC[C@@H]4CCCN4C)cc23)cccc1C(F)(F)F [Example 10-24, 4-methyl-N-((R)-1-(2-methyl-3-(trifluoromethyl)phenyl)ethyl)-7-(((S)-1-methylpyrrolidin-2-yl)methoxy)phthalazin-1-amine hydrochloride salt]				1.34	69
Cc1nnc(N[C@H](C)c2ccc(F)cc2F)c2cc(N3CC4CC(C3)O4)ncc12 [Example 12-58]	38	14.6			
Cc1cccc(C(C)Nc2nnc(C)c3ccc(N4CCOCC4)cc23)c1Cl (centres unmarked) [Example 10-60, N-(1-(2-chloro-3-methylphenyl)ethyl)-4-methyl-7-morpholinophthalazin-1-amine]	961	2			
Cc1c(C#N)cccc1[C@@H](C)Nc1nnc(C)c2ccc(N3CC4(CCN(C)C4=O)C3)cc12 [Example 10-69, (R)-2-methyl-3-(1-((4-methyl-7-(6-methyl-5-oxo-2,6-diazaspiro[3.4]octan-2-yl)phthalazin-1-yl)amino)ethyl)benzonitrile]	39	3.07			
Cc1c([C@@H](C)Nc2nnc(CN(C)C)c3cnc(N4C[C@H]5C[C@@H]4CO5)cc23)cccc1C(F)(F)F [Example 14-6, 7-((1R,4R)-2-oxa-5-azabicyclo[2.2.1]heptan-5-yl)-4-((dimethylamino)methyl)-N-((R)-1-(2-methyl-3-(trifluoromethyl)phenyl)ethyl)pyrido[3,4-d]pyridazin-1-amine]	142	2.56			
COc1c(C#N)cccc1[C@@H](C)Nc1nnc(C)c2cnc(N3CCN4CCOCC4C3)cc12 (stereo in doubt) [Example 17-2, 3-((R)-1-((7-((R)-hexahydropyrazino[2,1-c][1,4]oxazin-8(1H)-yl)-4-methylpyrido[3,4-d]pyridazin-1-yl)amino)ethyl)-2-methoxybenzonitrile]	50	12.5			
Cc1nnc(N[C@H](C)c2cc(N)cc(C(F)(F)F)n2)c2cc(N3CC4(CCN(C)C4=O)C3)ncc12 [Example 16-7, (R)-2-(1-((1-(4-amino-6-(trifluoromethyl)pyridin-2-yl)ethyl)amino)-4-methylpyrido[3,4-d]pyridazin-7-yl)-6-methyl-2,6-diazaspiro[3.4]octan-5-one]	2900	78.8			
Cc1cccc([C@@H](C)Nc2nnc(C)c3cnc(N4CC(C)(N(C)C)C4)cc23)c1F [Example 12-133]	97	11.5			
Cc1c(C#N)cccc1[C@@H](C)Nc1nnc(C)c2cnc(N3CCC(F)(F)CC3)cc12 [Example 12-34]	51	4.24			
Cc1c([C@@H](C)Nc2nnc(C)c3ccc(N4CCC(N5CCC5)CC4)cc23)cccc1C(F)(F)F [Example 10-30, (R)-7-(4-(azetidin-1-yl)piperidin-1-yl)-4-methyl-N-(1-(2-methyl-3-(trifluoromethyl)phenyl)ethyl)phthalazin-1-amine hydrochloride salt]				0.41	48
Cc1c(C#N)cc(F)cc1[C@@H](C)Nc1nnc(C)c2cnc(N3CCN4CCOC[C@@H]4C3)cc12 [Example 12-103]	107	10.9			
Cc1c([C@@H](C)Nc2nnc(C)c3cnc(N4CC(O)C4)cc23)cccc1C(F)(F)F [Example 12-22]	89	1.24			
Cc1c([C@@H](C)Nc2nnc(C)c3ccc(N4CCNCC(F)(F)C4)cc23)cccc1C(F)(F)F [Example 10-5, (R)-7-(6,6-difluoro-1,4-diazepan-1-yl)-4-methyl-N-(1-(2-methyl-3-(trifluoromethyl)phenyl)ethyl)phthalazin-1-amine]	108	< 0.01			

Compound	IC50 (pERK in MKN1 cells; [2]) [nM]	Ki [1, 3] [nM]	IC50 (pERK in MKN1 cells; [4]) [nM]	Ki [1] [nM]	IC50 (pERK in MKN1 cells; MKN-1) [nM]
Cc1c([C@@H](C)Nc2nnc(C)c3ccc(N4CC5CCC(C4)N5C)cc23)cccc1C(F)(F)F [Example 10-29, 4-methyl-N-((R)-1-(2-methyl-3-(trifluoromethyl)phenyl)ethyl)-7-(8-methyl-3,8-diazabicyclo[3.2.1]octan-3-yl)phthalazin-1-amine hydrochloride salt]				0.39	70
CNCc1ccccc1-c1ccc([C@@H](C)Nc2nnc(C)c3ccc(C)cc23)s1 [Example 8-1, (R)-4,7-di methyl-N-(1-(5-(2-((methylamino)methyl)phenyl)thiophen-2-yl)ethyl)phthalazin-1-amine]	164	1.38			
Cc1nnc(N[C@H](C)c2cc(N)c(F)c(C(F)(F)F)c2)c2cc(N3C[C@H]4C[C@@H]3CO4)ccc12 [Example 16-14, N-((R)-1-(3-amino-4-fluoro-5-(trifluoromethyl)phenyl)ethyl)-7-((1R,4R)-2-oxa-5-azabicyclo[2.2.1]heptan-5-yl)-4-methylphthalazin-1-amine]	37	1.71			
Cc1c([C@@H](C)Nc2nncc3ccc(OC4CCN(C)CC4)cc23)cccc1C(F)(F)F [Example 2-6, (R)-N-(1-(2-methyl-3-(trifluoromethyl)phenyl)ethyl)-7-((1-methylpiperidin-4-yl)oxy)phthalazin-1-amine]	83	2.1			
Cc1c(C#N)cc(F)cc1[C@@H](C)Nc1nnc(C)c2cnc(N3CC4CC(C3)O4)cc12 [Example 12-106]	114	11.1			
Cc1c(C#N)cccc1[C@@H](C)Nc1nnc(CN(C)C)c2cnc(N3C[C@H]4C[C@@H]3CO4)cc12 [Example 14-4, 3-((R)-1-((7-((1R,4R)-2-oxa-5-azabicyclo[2.2.1]heptan-5-yl)-4-((dimethylamino)methyl)pyrido[3,4-d]pyridazin-1-yl)amino)ethyl)-2-methylbenzonitrile]	89	8.55			
Cc1c(C#N)cccc1[C@@H](C)Nc1nnc(C)c2cnc(N3C[C@H]4CC[C@@H]3CN4C)cc12 [Example 12-40]	24	0.64			
Cc1nnc(N[C@H](C)c2ccc(F)cc2F)c2cc(N3CCN4CCOC[C@@H]4C3)ncc12 [Example 12-48]	114	17			
Cc1c([C@@H](C)Nc2nncc3ccc(N4CC(=O)N(C)CC4C)cc23)cccc1C(F)(F)F (stereo partly drawn) [Example 1-26, 1,5-dimethyl-4-(4-(((R)-1-(2-methyl-3-(trifluoromethyl)phenyl)ethyl)amino)phthalazin-6-yl)piperazin-2-one]	57	1.16			
Cc1nnc(N[C@H](C)c2cccc(C(F)(F)CO)c2)c2cc(N3CCOCC3)ncc12 [Example 21-7, (R)-2,2-difluoro-2-(3-(1-((4-methyl-7-morpholinopyrido[3,4-d]pyridazin-1-yl)amino)ethyl)phenyl)ethan-1-ol]			26	0.71	
Cc1nnc(N[C@H](C)c2cccc(C(F)(F)F)c2F)c2cc(N3CC(N(C)C)C3)ncc12 [Example 12-66]	77	2.1			
Cc1c([C@@H](C)Nc2nnc(C)c3ccc(N4CCC5(CCNC5)CC4)cc23)cccc1C(F)(F)F [Example 10-36, (R)-4-methyl-N-(1-(2-methyl-3-(trifluoromethyl)phenyl)ethyl)-7-(2,8-diazaspiro[4.5]decan-8-yl)phthalazin-1-amine hydrochloride salt]				0.23	79
Cc1c([C@@H](C)Nc2nnc(C)c3ccc(N4CCN5C(=O)CC[C@H]5C4)cc23)cccc1C(F)(F)F [Example 10-13, (S)-2-(1-methyl-4-(((R)-1-(2-methyl-3-(trifluoromethyl)phenyl)ethyl)amino)phthalazin-6-yl)hexahydropyrrolo[1,2-a]pyrazin-6(2H)-one]	39	0.49			
Cc1c([C@@H](C)Nc2nncc3ccc(OC4CCN5CCCC5C4)cc23)cccc1C(F)(F)F (stereo partly drawn) [Example 2-12, N-((R)-1-(2-methyl-3-(trifluoromethyl)phenyl)ethyl)-7-((octahydroindolizin-7-yl)oxy)phthalazin-1-amine]	304	5.75			
Cc1nnc(N[C@H](C)c2cccc(C(F)(F)C(C)(C)O)c2F)c2cc(N3CC4CC(C3)O4)ncc12 [Example 20-3, 1-(3-((1R)-1-((7-(6-oxa-3-azabicyclo[3.1.1]heptan-3-yl)-4-methylpyrido[3,4-d]pyridazin-1-yl)amino)ethyl)-2-fluorophenyl)-1,1-difluoro-2-methylpropan-2-ol]	16	0.92			
Cc1c([C@@H](C)Nc2nnc(C)c3cnc(N4CCC4)cc23)cccc1C(F)(F)F [Example 12-38]	97	1.29			
Cc1nnc(N[C@H](C)c2cccc(C(F)(F)F)c2F)c2cc(N3CC(N(C)C)C3)ccc12 [Example 10-76, (R)-7-(3-(dimethylamino)azetidin-1-yl)-N-(1-(2-fluoro-3-(trifluoromethyl)phenyl)ethyl)-4-methylphthalazin-1-amine]	85	3.44			
